Reference: ChEMBL document CHEMBL2177032, “Shooting for selective druglike G-quadruplex binders: evidence for telomeric DNA damage and tumor cell death” (2012)
Activity calls are given as the source filed them. The rule behind the calls is not given here.

Columns and labels:
Nucleic Acid [1] = experiment: Binding affinity to d(TGGGGT) quadruplex DNA at compound/DNA ratio 4:1 by isothermal titration calorimetry analysis; type: nucleic-acid assay
Nucleic Acid [2] = experiment: Displacement of distamycin-A from d(TGGGGT) quadruplex DNA at compound/DNA ratio 4:1 by isothermal titration calorimetry analysis; type: nucleic-acid assay
Nucleic Acid [3] = experiment: Binding affinity to d(TGGGGT) quadruplex DNA by NMR analysis; type: nucleic-acid assay
BJ [4] = experiment: Induction of telomere damage in human BJ cells expressing hTERT and SV40 early region assessed as gammaH2AX/TRF1 colocalizations at 0.1 to 0.5 uM after 24 hrs by immunofluorescence analysis; type: functional
BJ [5] = experiment: Induction of DNA damage in human BJ cells expressing hTERT and SV40 early region at 0.5 uM after 24 hrs by immunofluorescence analysis; type: functional, cell-based
BJ [6] = experiment: Induction of DNA damage in human BJ cells expressing hTERT and SV40 early region assessed as damaged foci colocalized with TRF1 at 0.1 to 0.5 uM after 24 hrs by deconvolution microscopy analysis; type: functional, cell-based
HeLa [7] = experiment: Cell cycle arrest in human HeLa cells assessed as accumulation at G2/M phase at 3.5 uM after 96 hrs by flow cytometry (reference value: 11%); type: functional
HeLa [8] = experiment: Cell cycle arrest in human HeLa cells assessed as accumulation at S phase at 3.5 uM after 72 hrs by flow cytometry (reference value: 22%); type: functional
HeLa [9] = experiment: Cell cycle arrest in human HeLa cells assessed as accumulation at G2/M phase at 3.5 uM after 24 hrs by flow cytometry (reference value: 16%); type: functional
HeLa [10] = experiment: Cell cycle arrest in human HeLa cells assessed as accumulation at S phase at 3.5 uM after 96 hrs by flow cytometry (reference value: 22%); type: functional
HeLa [11] = experiment: Cell cycle arrest in human HeLa cells assessed as accumulation at G0-G1 phase at 3.5 uM after 24 hrs by flow cytometry (reference value: 57%); type: functional
HeLa [12] = experiment: Cell cycle arrest in human HeLa cells assessed as accumulation at G2/M phase at 3.5 uM after 120 hrs by flow cytometry (reference value: 18%); type: functional
HeLa [13] = experiment: Cell cycle arrest in human HeLa cells assessed as accumulation at sub-G1 phase at 3.5 uM after 24 hrs by flow cytometry (reference value: 3%); type: functional
HeLa [14] = experiment: Cell cycle arrest in human HeLa cells assessed as accumulation at sub-G1 phase at 3.5 uM after 96 hrs by flow cytometry (reference value: 6%); type: functional
HeLa [15] = experiment: Cell cycle arrest in human HeLa cells assessed as accumulation at S phase at 3.5 uM after 24 hrs by flow cytometry (reference value: 27%); type: functional
HeLa [16] = experiment: Cell cycle arrest in human HeLa cells assessed as accumulation at S phase at 3.5 uM after 120 hrs by flow cytometry (reference value: 31%); type: functional
HeLa [17] = experiment: Cell cycle arrest in human HeLa cells assessed as accumulation at G0-G1 phase at 3.5 uM after 96 hrs by flow cytometry (reference value: 67%); type: functional
HeLa [18] = experiment: Induction of apoptosis in human HeLa cells at 3.5 uM after 72 hrs using Annexin V-FITC vs PI staining by flow cytometry (reference value: 3.9%); type: functional
HeLa [19] = experiment: Cell cycle arrest in human HeLa cells assessed as accumulation at G0-G1 phase at 3.5 uM after 120 hrs by flow cytometry (reference value: 51%); type: functional
HeLa [20] = experiment: Cell cycle arrest in human HeLa cells assessed as accumulation at sub-G1 phase at 3.5 uM after 72 hrs by flow cytometry (reference value: 5%); type: functional
HeLa [21] = experiment: Induction of apoptosis in human HeLa cells at 3.5 uM after 96 hrs using Annexin V-FITC vs PI staining by flow cytometry (reference value: 5.3%); type: functional
HeLa [22] = experiment: Induction of apoptosis in human HeLa cells at 3.5 uM after 120 hrs using Annexin V-FITC vs PI staining by flow cytometry (reference value: 8.3%); type: functional
HeLa [23] = experiment: Cytotoxicity against human HeLa cells assessed as decrease in cell survival; type: functional, cell-based
HeLa [24] = experiment: Cell cycle arrest in human HeLa cells assessed as accumulation at G2/M phase at 3.5 uM after 72 hrs by flow cytometry (reference value: 14%); type: functional
HeLa [25] = experiment: Induction of apoptosis in human HeLa cells at 3.5 uM after 24 hrs using Annexin V-FITC vs PI staining by flow cytometry (reference value: 3.8%); type: functional
HeLa [26] = experiment: Cell cycle arrest in human HeLa cells assessed as accumulation at G0-G1 phase at 3.5 uM after 72 hrs by flow cytometry (reference value: 64%); type: functional
HeLa [27] = experiment: Cell cycle arrest in human HeLa cells assessed as accumulation at sub-G1 phase at 3.5 uM after 120 hrs by flow cytometry (reference value: 14%); type: functional
Nucleic Acid [28] = experiment: Binding affinity to d(TGGGGT) quadruplex DNA by chemical shift perturbation method; type: nucleic-acid assay

O=c1oc2c(CN3CCN(CCO)CC3)c(O)ccc2cc1-c1nc2ccccc2s1
Activity (Nucleic Acid [1]): Active | Activity (Nucleic Acid [2]): Active

CC1CCN(Cc2c(O)ccc3c(=O)c(-c4nc5ccccc5s4)coc23)CC1
Activity (Nucleic Acid [3]): Active

Cc1oc2c(CN3CCCC3)c(O)ccc2c(=O)c1-c1nc2ccccc2s1
Activity (Nucleic Acid [3]): inactive

Nc1oc2c(CN3CCCCCC3)c(O)ccc2c(=O)c1-c1nc2ccccc2s1
Activity (BJ [4]): 50% | Activity (Nucleic Acid [3]): Active | Activity (BJ [5]): Active | Activity (Nucleic Acid [1]): Active | Activity (BJ [6]): Active

CN(C)Cc1c(O)ccc2c(=O)c(-c3nc4ccccc4s3)coc12
Activity (Nucleic Acid [3]): Active

Cc1oc2c(CN(C)C)c(O)ccc2c(=O)c1-c1nc2ccccc2s1
Activity (Nucleic Acid [3]): inactive

CCC1CCCCN1Cc1c(O)ccc2c(=O)c(-c3nc4ccccc4s3)coc12 (stereo unspecified)
Activity (Nucleic Acid [3]): Active

CC1CCCC(C)N1Cc1c(O)ccc2c(=O)c(-c3nc4ccccc4s3)c(N)oc12 (stereo unspecified)
Activity (HeLa [7]): 32% | Activity (BJ [4]): 50% | Activity (HeLa [8]): 23% | Activity (HeLa [9]): 20% | Activity (HeLa [10]): 28% | Activity (Nucleic Acid [3]): Active | Activity (HeLa [11]): 52% | Activity (HeLa [12]): 31% | Activity (HeLa [13]): 5% | Activity (HeLa [14]): 19% | Activity (HeLa [15]): 28% | Activity (HeLa [16]): 26% | Activity (HeLa [17]): 40% | Activity (HeLa [18]): 7.1% | Activity (HeLa [19]): 43% | Activity (BJ [5]): Active | Activity (HeLa [20]): 12% | Activity (HeLa [21]): 13.9% | Activity (HeLa [22]): 30.6% | inhibition (HeLa [23]): Dose-dependent effect | Activity (Nucleic Acid [1]): Active | Activity (HeLa [24]): 37% | Activity (HeLa [25]): 4.6% | Activity (BJ [6]): Active | Activity (HeLa [26]): 40% | Activity (HeLa [27]): 38%

O=c1c(-c2nc3ccccc3s2)coc2c(CN3CCOCC3)c(O)ccc12
Activity (Nucleic Acid [3]): Active

CC1(C)C[C@H]2CN(Cc3c(O)ccc4c(=O)c(-c5nc6ccccc6s5)c(N)oc34)[C@](C)(C2)C1
Activity (Nucleic Acid [3]): inactive

O=c1c(-c2nc3ccccc3s2)coc2c(CN3CCCCC3)c(O)ccc12
Activity (Nucleic Acid [3]): Active

CCc1cc2c(=O)c(-c3nc4ccccc4s3)coc2c(CN(CC)CC)c1O
Activity (Nucleic Acid [3]): inactive

CN1CCN(Cc2c(O)ccc3cc(-c4nc5ccccc5s4)c(=O)oc23)CC1
Activity (Nucleic Acid [28]): Active

O=c1oc2c(CN3CCN(c4ccccc4)CC3)c(O)ccc2cc1-c1nc2ccccc2s1
Activity (Nucleic Acid [28]): inactive

CC1CCCN(Cc2c(O)ccc3c(=O)c(-c4nc5ccccc5s4)coc23)C1 (stereo unspecified)
Activity (Nucleic Acid [3]): Active

CCc1cc2c(=O)c(-c3nc4ccccc4s3)coc2c(CN2CCCC2)c1O
Activity (Nucleic Acid [3]): inactive

CCN1CCN(Cc2c(O)ccc3cc(-c4nc5ccccc5s4)c(=O)oc23)CC1
Activity (Nucleic Acid [28]): Active

CC1CCCCN1Cc1c(O)ccc2c(=O)c(-c3nc4ccccc4s3)coc12 (stereo unspecified)
Activity (Nucleic Acid [3]): Active

CCOC(=O)N1CCN(Cc2c(O)ccc3cc(-c4nc5ccccc5s4)c(=O)oc23)CC1
Activity (Nucleic Acid [28]): inactive

CC1CCCN(Cc2c(O)ccc3c(O)c(-c4nc5ccccc5s4)c(=N)oc23)C1 (stereo unspecified)
Activity (Nucleic Acid [3]): Active

Cn1cc(NC(=O)c2cc(NC(=O)c3cc(NC=O)cn3C)cn2C)cc1C(=O)NCCC(=N)N
Activity (BJ [5]): Active | Activity (BJ [6]): Active

O=c1c(-c2nc3ccccc3s2)coc2c(CN3CCCC3)c(O)ccc12
Activity (Nucleic Acid [3]): Active

O=c1oc2c(CN(CCO)CCO)c(O)ccc2cc1-c1nc2ccccc2s1
Activity (Nucleic Acid [28]): Active

CC1CCN(Cc2c(O)ccc3c(O)c(-c4nc5ccccc5s4)c(=N)oc23)CC1
Activity (Nucleic Acid [3]): Active

O=c1c(-c2nc3ccccc3s2)coc2cc(O)ccc12
Activity (Nucleic Acid [3]): inactive

CCN(CC)Cc1c(O)ccc2c(=O)c(-c3nc4ccccc4s3)coc12
Activity (BJ [4]): 50% | Activity (Nucleic Acid [3]): Active | Activity (BJ [5]): Active | Activity (Nucleic Acid [1]): Active | Activity (BJ [6]): Active
